Test results: patent publication US8828696B2, “Use of Penicillin G Procaine as a selective antimicrobial agent in the production of alcohol by fermentation” (Lallemand Specialites, Inc, priority 2008, dated 2014)

Assays:
[1] = tested on: Lactobacillus brevis; assay: Bacterial inhibition test; format: cell-based; parameters: key to bacterial growth in inhibition test: successful test corresponding to no growth is represented as (=); barely discernable growth is represented as (±); easily noticeable bacterial growth is represented as (+)
Description: (§1) To directly measure the efficacy of Penicillin G Procaine and Penicillin G Potassium a bacterial inhibition test was designed using industrial isolates and chosen ATCC strains. The inhibition testing was spread over 0.1 ppm to 5.0 ppm for the Lactobacillus fermentum and 1.0 ppm to 5.0 ppm for Lactobacillus brevis species of bacteria due to the lack of response of Lactobacillus brevis at lower concentrations. […] The strains used were two isolates of Lactobacillus fermentum and 2 isolates of Lactobacillus brevis. The Lactobacillus fermentum series contained both an industry derived isolate Ind 1 and an ATCC strain while the Lactobacillus brevis series comprised of two isolates, Ind 1 and Ind 43 derived from the ethanol plants. The inhibition test plates were set in triplicate and read at 12 hour intervals up to 48 hours of test endpoint. The results below represent the mode average of the outcome from the triplicate inhibitory test sets for each trial. Table 11 lists the Lactobacillus fermentum and the Lactobacillus brevis results of the inhibition testing as follows: successful test corresponding to no growth is represented as (=), barely discernable growth is represented as (±) and easily noticeable bacterial growth is represented as (+). The set of control tests depict (=) control as just broth and (+) control as just broth with bacteria but without any antibiotic.
(§2) The trial was set up as follows:
(§3) • 1. Weigh out 0.1 g of each sample to be tested into a 15 ml centrifuge tube. • 2. Dissolve sample into 10 ml sterile water. […] Add antibiotic to clean tube, add 2 ml water. • b. Vortex, if antibiotic goes into solution add water for final volume of 10 ml. • c. […] Vortex until all material is in solution. • 3. Vortex the solutions to make sure that they are well mixed. • 4. Filter the solutions through a 0.2 μm syringe filter into a second labeled sterile centrifuge tube. • 5. Add antibiotic solution to MRS Broth for a final volume of 10 ml at the test concentration for each antibiotic. • 6. Mix organism solutions and add 2 μl to each of 3 wells of a 24 well plate. If tubes are used add the 2 μl to each of three tubes for each antibiotic. • 7. Transfer 1 ml of the antibiotic-broth solution to each well containing bacteria. • 8. Recap remaining antibiotic solution and return the tube to the tube rack. This tube will become the negative control for each dilution created. • 9. Add four μl of each bacterial culture to another set of wells and add […] of broth without antibiotics. These wells will be the positive controls. • 10. Incubate plates and tubes at 33 C for 48 hours, examining all samples at 24 hours for growth. Any turbidity detected should be a result of bacterial growth.

[2] = tested on: Lactobacillus fermentum; assay: Bacterial inhibition test; format: cell-based; parameters: key: successful test corresponding to no growth is represented as (=); barely discernable growth is represented as (±); easily noticeable bacterial growth is represented as (+)
Description: as §1, §2, §3

**Q.** Which results are given for `CC1(C)S[C@@H]2[C@H](NC(=O)Cc3ccccc3)C(=O)N2[C@H]1C(=O)[O-].[K+]` [Penicillin G Potassium]?
**A.** bacterial growth in inhibition test ([1]; Ind 1 L. brevis, 1 ppm, Inc Time 12): ±; bacterial growth in inhibition test ([1]; Ind 1 L. brevis, 1 ppm, Inc Time 24): +; bacterial growth in inhibition test ([1]; Ind 1 L. brevis, 1 ppm, Inc Time 36): +; bacterial growth in inhibition test ([1]; Ind 1 L. brevis, 1 ppm, Inc Time 48): +; bacterial growth in inhibition test ([1]; Ind 1 L. brevis, 2 ppm, Inc Time 12): ±; bacterial growth in inhibition test ([1]; Ind 1 L. brevis, 2 ppm, Inc Time 24): +; bacterial growth in inhibition test ([1]; Ind 1 L. brevis, 2 ppm, Inc Time 36): +; bacterial growth in inhibition test ([1]; Ind 1 L. brevis, 2 ppm, Inc Time 48): +; bacterial growth in inhibition test ([1]; Ind 1 L. brevis, 3 ppm, Inc Time 12): ±; bacterial growth in inhibition test ([1]; Ind 1 L. brevis, 3 ppm, Inc Time 24): +; bacterial growth in inhibition test ([1]; Ind 1 L. brevis, 3 ppm, Inc Time 36): +; bacterial growth in inhibition test ([1]; Ind 1 L. brevis, 3 ppm, Inc Time 48): +; bacterial growth in inhibition test ([1]; Ind 1 L. brevis, 4 ppm, Inc Time 12): ±; bacterial growth in inhibition test ([1]; Ind 1 L. brevis, 4 ppm, Inc Time 24): +; bacterial growth in inhibition test ([1]; Ind 1 L. brevis, 4 ppm, Inc Time 36): +; bacterial growth in inhibition test ([1]; Ind 1 L. brevis, 4 ppm, Inc Time 48): +; bacterial growth in inhibition test ([1]; Ind 1 L. brevis, 5 ppm, Inc Time 12): =; bacterial growth in inhibition test ([1]; Ind 1 L. brevis, 5 ppm, Inc Time 24): =; bacterial growth in inhibition test ([1]; Ind 1 L. brevis, 5 ppm, Inc Time 36): ±; bacterial growth in inhibition test ([1]; Ind 1 L. brevis, 5 ppm, Inc Time 48): +; bacterial growth in inhibition test ([1]; Ind 43 L. brevis, 1 ppm, Inc Time 12): =; bacterial growth in inhibition test ([1]; Ind 43 L. brevis, 1 ppm, Inc Time 24): +; bacterial growth in inhibition test ([1]; Ind 43 L. brevis, 1 ppm, Inc Time 36): +; bacterial growth in inhibition test ([1]; Ind 43 L. brevis, 1 ppm, Inc Time 48): +; bacterial growth in inhibition test ([1]; Ind 43 L. brevis, 2 ppm, Inc Time 12): =; bacterial growth in inhibition test ([1]; Ind 43 L. brevis, 2 ppm, Inc Time 24): +; bacterial growth in inhibition test ([1]; Ind 43 L. brevis, 2 ppm, Inc Time 36): +; bacterial growth in inhibition test ([1]; Ind 43 L. brevis, 2 ppm, Inc Time 48): +; bacterial growth in inhibition test ([1]; Ind 43 L. brevis, 3 ppm, Inc Time 12): =; bacterial growth in inhibition test ([1]; Ind 43 L. brevis, 3 ppm, Inc Time 24): +; bacterial growth in inhibition test ([1]; Ind 43 L. brevis, 3 ppm, Inc Time 36): +; bacterial growth in inhibition test ([1]; Ind 43 L. brevis, 3 ppm, Inc Time 48): +; bacterial growth in inhibition test ([1]; Ind 43 L. brevis, 4 ppm, Inc Time 12): =; bacterial growth in inhibition test ([1]; Ind 43 L. brevis, 4 ppm, Inc Time 24): ±; bacterial growth in inhibition test ([1]; Ind 43 L. brevis, 4 ppm, Inc Time 36): ±; bacterial growth in inhibition test ([1]; Ind 43 L. brevis, 4 ppm, Inc Time 48): +; bacterial growth in inhibition test ([1]; Ind 43 L. brevis, 5 ppm, Inc Time 12): =; bacterial growth in inhibition test ([1]; Ind 43 L. brevis, 5 ppm, Inc Time 24): ±; bacterial growth in inhibition test ([1]; Ind 43 L. brevis, 5 ppm, Inc Time 36): ±; bacterial growth in inhibition test ([1]; Ind 43 L. brevis, 5 ppm, Inc Time 48): +; bacterial growth in inhibition test ([2]; ATCC L. fermentum, 0.1 ppm, Inc Time 12): =; bacterial growth in inhibition test ([2]; ATCC L. fermentum, 0.1 ppm, Inc Time 24): =; bacterial growth in inhibition test ([2]; ATCC L. fermentum, 0.1 ppm, Inc Time 36): ±; bacterial growth in inhibition test ([2]; ATCC L. fermentum, 0.1 ppm, Inc Time 48): ±; bacterial growth in inhibition test ([2]; ATCC L. fermentum, 0.3 ppm, Inc Time 12): =; bacterial growth in inhibition test ([2]; ATCC L. fermentum, 0.3 ppm, Inc Time 24): =; bacterial growth in inhibition test ([2]; ATCC L. fermentum, 0.3 ppm, Inc Time 36): =; bacterial growth in inhibition test ([2]; ATCC L. fermentum, 0.3 ppm, Inc Time 48): =; bacterial growth in inhibition test ([2]; ATCC L. fermentum, 0.5 ppm, Inc Time 12): =; bacterial growth in inhibition test ([2]; ATCC L. fermentum, 0.5 ppm, Inc Time 24): =; bacterial growth in inhibition test ([2]; ATCC L. fermentum, 0.5 ppm, Inc Time 36): =; bacterial growth in inhibition test ([2]; ATCC L. fermentum, 0.5 ppm, Inc Time 48): =; bacterial growth in inhibition test ([2]; ATCC L. fermentum, 1 ppm, Inc Time 12): =; bacterial growth in inhibition test ([2]; ATCC L. fermentum, 1 ppm, Inc Time 24): =; bacterial growth in inhibition test ([2]; ATCC L. fermentum, 1 ppm, Inc Time 36): =; bacterial growth in inhibition test ([2]; ATCC L. fermentum, 1 ppm, Inc Time 48): =; bacterial growth in inhibition test ([2]; ATCC L. fermentum, 5 ppm, Inc Time 12): =; bacterial growth in inhibition test ([2]; ATCC L. fermentum, 5 ppm, Inc Time 24): =; bacterial growth in inhibition test ([2]; ATCC L. fermentum, 5 ppm, Inc Time 36): =; bacterial growth in inhibition test ([2]; ATCC L. fermentum, 5 ppm, Inc Time 48): =; bacterial growth in inhibition test ([2]; Ind 1 L. fermentum, 0.1 ppm, Inc Time 12): =; bacterial growth in inhibition test ([2]; Ind 1 L. fermentum, 0.1 ppm, Inc Time 24): ±; bacterial growth in inhibition test ([2]; Ind 1 L. fermentum, 0.1 ppm, Inc Time 36): ±; bacterial growth in inhibition test ([2]; Ind 1 L. fermentum, 0.1 ppm, Inc Time 48): ±; bacterial growth in inhibition test ([2]; Ind 1 L. fermentum, 0.3 ppm, Inc Time 12): =; bacterial growth in inhibition test ([2]; Ind 1 L. fermentum, 0.3 ppm, Inc Time 24): =; bacterial growth in inhibition test ([2]; Ind 1 L. fermentum, 0.3 ppm, Inc Time 36): ±; bacterial growth in inhibition test ([2]; Ind 1 L. fermentum, 0.3 ppm, Inc Time 48): ±; bacterial growth in inhibition test ([2]; Ind 1 L. fermentum, 0.5 ppm, Inc Time 12): =; bacterial growth in inhibition test ([2]; Ind 1 L. fermentum, 0.5 ppm, Inc Time 24): =; bacterial growth in inhibition test ([2]; Ind 1 L. fermentum, 0.5 ppm, Inc Time 36): =; bacterial growth in inhibition test ([2]; Ind 1 L. fermentum, 0.5 ppm, Inc Time 48): =; bacterial growth in inhibition test ([2]; Ind 1 L. fermentum, 1.0 ppm, Inc Time 12): =; bacterial growth in inhibition test ([2]; Ind 1 L. fermentum, 1.0 ppm, Inc Time 24): =; bacterial growth in inhibition test ([2]; Ind 1 L. fermentum, 1.0 ppm, Inc Time 36): =; bacterial growth in inhibition test ([2]; Ind 1 L. fermentum, 1.0 ppm, Inc Time 48): =; bacterial growth in inhibition test ([2]; Ind 1 L. fermentum, 5.0 ppm, Inc Time 12): =; bacterial growth in inhibition test ([2]; Ind 1 L. fermentum, 5.0 ppm, Inc Time 24): =; bacterial growth in inhibition test ([2]; Ind 1 L. fermentum, 5.0 ppm, Inc Time 36): =; bacterial growth in inhibition test ([2]; Ind 1 L. fermentum, 5.0 ppm, Inc Time 48): =
